Measurements from paper PMC8145596, “Novel Chemically Modified Curcumin (CMC) Derivatives Inhibit Tyrosinase Activity and Melanin Synthesis in B16F10 Mouse Melanoma Cells” (Biomolecules, 2021).
“Also recorded” adds a separate entry of the source.

Assays:
[1] = system: cAMP levels in B16F10 cells; experiment: cAMP levels by competitive ELISA in B16F10 lysates; type: cell-based, mouse; conditions: for effect on cAMP levels: all concentrations tested
Source text: For assaying the levels of cAMP in B16F10 cellular lysates, a competitive ELISA (Enzo Life Sciences, Farmingdale, NY, USA) was used in non-acetylated format based on manufacturer instructions.

mushroom tyrosinase [2] = target: T1, mushroom tyrosinase (Agaricus bisporus, UniProt C7FF04); experiment: Diphenolase activity assay of mushroom tyrosinase (L-DOPA substrate); type: biochemical; conditions: for diphenolase inhibitory potency: compared with CMC2.24; for mechanism of inhibition of diphenolase activity: L-B and Dixon plots, nonlinear curve fitting; for Ki: read-out: apparent Ki, diphenolase (L-DOPA)
T1 sequence (C7FF04 1-392): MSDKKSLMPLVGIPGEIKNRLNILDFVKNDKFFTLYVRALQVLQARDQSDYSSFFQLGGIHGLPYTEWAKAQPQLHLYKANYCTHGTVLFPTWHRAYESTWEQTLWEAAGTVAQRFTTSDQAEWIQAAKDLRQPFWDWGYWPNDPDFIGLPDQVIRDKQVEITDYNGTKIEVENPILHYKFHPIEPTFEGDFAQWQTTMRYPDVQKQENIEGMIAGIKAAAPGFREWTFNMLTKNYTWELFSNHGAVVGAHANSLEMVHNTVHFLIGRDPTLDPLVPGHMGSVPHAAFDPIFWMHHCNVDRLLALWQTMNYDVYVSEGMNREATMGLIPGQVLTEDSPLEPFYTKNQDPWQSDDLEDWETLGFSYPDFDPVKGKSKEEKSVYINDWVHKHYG
Protocol: The direct effects of the compounds on the diphenolase activity of tyrosinase were tested using mushroom tyrosinase with a fixed concentration of L-DOPA as the substrate. Briefly, 80 µL of each compound prepared at different concentrations in 50 mM sodium phosphate buffer (pH 6.8) was added to wells of a 96-well microplate, followed by 100 µL of freshly prepared substrate solution (3 mM L-DOPA in buffer). The reaction was initiated by adding 20 µL of mushroom tyrosinase (final concentration of enzyme in wells was 3.5 µg/mL). The production of Dopachrome was monitored by measuring the absorbance at 475 nm every 30 s for a period of 30 min at 30 °C, using a microplate reader in the kinetic mode. The slopes of the plots of absorbance vs. time were calculated for comparison of enzyme activity in the presence of each of the inhibitors to that of the inhibitor-free control.
(§1) In order to study the mechanism of inhibition of tyrosinase activity by the compounds as a function of substrate concentration, we conducted a kinetic study of monophenolase and diphenolase activities at multiple concentrations of substrates. For the monophenolase activity assay, the final concentration of enzyme was 12.5 µg/mL and the final substrate concentrations were 0.125, 0.25, 0.5 and 1 mM, while for diphenolase activity assay, the final concentration of enzyme was 3.5 µg/mL and the final substrate concentrations ranged from 0.1–3 mM. The slopes from the linear range of the progress curves of absorbance at 475 nm vs. time were recorded as apparent velocities and the reciprocal values, 1/v, were plotted as functions of the reciprocal values of the substrate concentrations at different fixed inhibitor concentrations according to the method of Lineweaver and Burk (L-B). Dixon plots of the reciprocal velocity values, (1/v), as functions of the inhibitor concentrations at different fixed substrate concentrations were also constructed to investigate further the apparent mode of inhibition by the compounds.
(§2) We have also analyzed the inhibition data using nonlinear curve fitting algorithms which are more robust than the linearized L-B and Dixon plotting methods that can weigh the data from evenly spaced concentrations disproportionately. The inhibition constants were calculated by non-linear least squares curve fitting using a modified Levenberg-Marquardt algorithm and data was fitted to models of pure competitive, noncompetitive, and uncompetitive inhibition using Enzfitter software (version 2.0, Biosoft, Cambridge, UK). This analysis was undertaken to assess the apparent potency of compounds, PC, CMC2.24, and CMC2.23 for each putative mode of inhibition.

[3] = system: B16F10 mouse melanoma cells; experiment: Melanin levels in B16F10 cells; type: cell-based; conditions: for suppression of melanin levels: 48 h
Protocol: B16F10 cells (1 × 10^5 cells/well) were seeded in 12-well plates and cultured for 24 h. The medium was then replaced with compounds at nontoxic concentrations that were selected on the basis of the MTS assay and incubated for another 48 h. After the treatments, the cells were detached using TrypLE (1×), and cell pellets were washed in PBS. Cell pellets were visually observed for lightening of the pigment. After aspiration, 250 μL of 1N NaOH was added and heated to 70 °C to solubilize melanin. The aliquots were then transferred to a 96-well plate and absorbance was read at 475 nm using a microplate reader. The absorbance was normalized to total protein content and was expressed as % of control.

[4] = system: α-glucosidase activity in B16F10 cells; experiment: Intracellular α-glucosidase assay; type: cell-based, mouse; conditions: 48 h; for inhibition at 10 µM / inhibition at 5 µM / inhibition at 20 µM / inhibition at 25 µM: Mus musculus, B16-F10, read-out: inhibition of cellular α-glucosidase activity
Protocol: B16F10 cells (2.2 × 10^5) were grown in 6-well plates and compounds were added next day for 48 h. Cells were harvested, lysed and 50 µL of lysates were aliquoted in a 96-well plate with 100 µL of 2 mM pNG substrate; rate of the formation of the yellow-colored reaction product, p-nitrophenol, was monitored at 405 nm for 30 min at 37 °C in a microplate reader (kinetic mode) and values were normalized to total protein contents. The cellular α-glucosidase activity was calculated as (rate of sample reaction/rate of control reaction) × 100 and was expressed as percentage of control.

mushroom tyrosinase [5] = target: T1, mushroom tyrosinase; experiment: Monophenolase activity assay of mushroom tyrosinase (L-Tyrosine substrate); type: biochemical; conditions: for mechanism of inhibition of monophenolase activity: L-B and Dixon plots, nonlinear curve fitting; for Ki: read-out: apparent Ki, monophenolase (L-TYR)
Protocol: The direct effects of the compounds on the monophenolase activity of tyrosinase were tested using mushroom tyrosinase enzyme with a fixed concentration of L-Tyrosine (L-Tyr) as the substrate. Briefly, 80 µL of compounds prepared at different concentrations in 50 mM sodium phosphate (pH 6.8) buffer were added to wells of a 96-well microplate followed by 100 µL of 2 mM L-Tyr solution. The reaction was initiated by adding 20 µL of mushroom tyrosinase (final concentration of enzyme in wells was 12.5 µg/mL) and was monitored by measuring absorbance at 475 nm every 30 s over a 30 min period, using a microplate reader (Versamax®) in the kinetic mode. The slopes of the plots of absorbance vs. time were calculated for comparison of enzyme activity in the presence of each of the inhibitors to that of an inhibitor-free control and reported as percentage of control activity (%).
as §1, §2

[6] = system: B16F10 mouse melanoma cells; experiment: MTS cell viability assay; type: cell-based; conditions: for cytotoxicity / cell viability: 48 h; for cytotoxicity: B16F10, full concentration range; for cell viability: B16F10
Protocol: B16F10 mouse melanoma cells (CRL-6475™) were obtained from American Type Culture Collection (ATCC, Manassas, VA, USA) and cultured using Dulbecco’s Modified Eagle Medium (DMEM) supplemented with 10% heat-inactivated fetal bovine serum (HI-FBS) and 1% antibiotics (penicillin-streptomycin) in a humidified incubator with 95% air—5% CO2 at 37 °C. In order to test the four CMCs (CMC2.14, CMC2.24, CMC2.5 and CMC2.23) to that of PC, for their effects on melanin content, we first screened them for cytotoxicity using a tetrazolium assay with MTS (Promega CellTiter Aqueous One). Briefly, B16F10 cells were seeded at 4 × 10^3 cells/well in a 96-well plate for 24 h. The compounds were diluted using culture medium to yield a final DMSO in all groups of 0.16% and added to the cell monolayers in wells after 24 h. Control was treated with 0.16% DMSO. At the end of 48 h, the medium was aspirated and replaced by 100 μL of fresh medium. 20 μL of MTS reagent was then added, and the plate was incubated at 37 °C for 40 min. At this point, the absorbance of 100 μL aliquots was read at 490 nm using a microplate reader. Cell viability was calculated from the absorbance values relative to control groups and expressed in %.

[7] = fit to pure competitive inhibition
[8] = fit to pure noncompetitive inhibition
[9] = fit to pure uncompetitive inhibition

Row | Compound | effect on cAMP levels ([1]; 48 h) | diphenolase inhibitory potency (mushroom tyrosinase [2]) | suppression of melanin levels ([3]; 10 µM) [%] | inhibition at 10 µM ([4]; 10 µM) [%] | mechanism of inhibition of diphenolase activity (mushroom tyrosinase [2]) | Vmax, diphenolase (L-DOPA) (mushroom tyrosinase [2]; competitive model fit) [mM/min] | Vmax, diphenolase (L-DOPA) (mushroom tyrosinase [2]; noncompetitive model fit) [mM/min] | Vmax, diphenolase (L-DOPA) (mushroom tyrosinase [2]; uncompetitive model fit) [mM/min] | mechanism of inhibition of monophenolase activity (mushroom tyrosinase [5]) | suppression of melanin levels ([3]; 20 µM) [%] | suppression of melanin levels ([3]; 25 µM) [%] | inhibition at 5 µM ([4]; 5 µM) [%] | inhibition at 20 µM [4] [%] | cytotoxicity [6] | inhibition at 25 µM ([4]; 25 µM) [%] | other results
1 | COC(=O)/C(C(=O)/C=C/c1ccc(O)cc1)=C(O)\C=C\c1ccc(O)cc1 [CMC2.14] | did not affect cAMP levels at any concentration | somewhat weaker inhibitory potency | 28.42 | 16.5 |  |  |  |  |  |  |  |  |  |  |  | 
2 | COc1cc(/C=C/C(=O)/C(C(=O)Nc2ccccc2)=C(O)/C=C/c2ccc(O)c(OC)c2)ccc1O [CMC2.23] | did not affect cAMP levels at any concentration | somewhat weaker inhibitory potency | 28.63 | 14.9 | mixed mechanism of inhibition; also recorded: mixed, but predominantly competitive, mode of inhibition | 38.0 | 39.05 | 39.0 | mixed, but predominantly competitive, mode of inhibition | 33.68 | 37.87 | 12.4 | 11.8 | nontoxic over the full concentration range |  | inhibition of cellular α-glucosidase activity ([4]; 25 µM): no change
3 | 1,7-bis(4-hydroxy-3-methoxyphenyl)-1,6-heptadien-3,5-dione [PC, reference compound] | trend for attenuation of cAMP levels, but the levels were not significant |  | 20.92 |  | not a pure competitive inhibitor; also recorded: mixed inhibitor | 44.67 | 48.28 | 47.52 | not a pure competitive inhibitor; also recorded: mixed inhibitor |  |  |  |  |  |  | inhibition of diphenolase activity (mushroom tyrosinase [2]; 5 μM compound): 14.47%; inhibition of diphenolase activity (mushroom tyrosinase [2]; 10 μM compound): 12.41%; inhibition of diphenolase activity (mushroom tyrosinase [2]; 20 μM compound): 14.19%; inhibition of diphenolase activity (mushroom tyrosinase [2]; 25 μM compound): 16.39%; Ki (mushroom tyrosinase [2]; [7]): 45.1 µM; Ki (mushroom tyrosinase [2]; [8]): 164 µM; Ki (mushroom tyrosinase [2]; [9]): 129 µM; IC50 (mushroom tyrosinase [2]; fixed substrate concentration (L-DOPA), read-out: IC50 for Diphenolase inhibition): 299 ± 35.6 µM; inhibition of monophenolase activity (mushroom tyrosinase [5]; 10 μM compound): 14.41%; inhibition of monophenolase activity (mushroom tyrosinase [5]; 20 μM compound): 21.31%; inhibition of monophenolase activity (mushroom tyrosinase [5]; 25 μM compound): 22.10%; Ki (mushroom tyrosinase [5]; [7]): 7.74 µM; Ki (mushroom tyrosinase [5]; [8]): 50.8 µM; Ki (mushroom tyrosinase [5]; [9]): 40.2 µM; IC50 (mushroom tyrosinase [5]; fixed substrate concentration (L-Tyr), read-out: IC50 for Monophenolase Inhibition): 67 ± 2.4 µM; inhibition of cellular α-glucosidase activity ([4]; 5 µM): 13.71%; inhibition of cellular α-glucosidase activity ([4]; 10 µM): 10.47%; cell viability ([6]; 20 µM): 29.47%; cell viability ([6]; 25 µM): 30.83%; concentrations with significant cytotoxicity ([6]; B16F10, 48 h): > 10 µM
4 | COC(=O)/C(C(=O)/C=C/c1ccc(O)c(OC)c1)=C(O)\C=C\c1ccc(O)c(OC)c1 [CMC2.5, 4-methoxycarbonyl curcumin] | did not affect cAMP levels at any concentration | somewhat weaker inhibitory potency |  | 12.4 |  |  |  |  |  | 34.84 | 31.40 |  | 25.6 | nontoxic over the full concentration range | 27.4 | 
5 | O=C(/C=C/c1ccc(O)cc1)/C(C(=O)Nc1ccccc1)=C(O)/C=C/c1ccc(O)cc1 [CMC2.24] |  |  | 32.54 | 12.6 | mixed mode of inhibition with a predominantly competitive mechanism | 36.0 | 43.69 | 41.99 | mixed mode of inhibition with a predominantly competitive mechanism | 43.53 | 41.07 | 10.2 | 20.3 | nontoxic over the full concentration range | 16.4 | attenuation of cAMP levels ([1]; 10 µM, 48 h (not significant)): 18.13%; attenuation of cAMP levels ([1]; 20 µM, 48 h): 38.18%; attenuation of cAMP levels ([1]; 25 µM, 48 h): 49.42%; inhibition at 20 µM (mushroom tyrosinase [2]; 20 μM compound): 35.4%; inhibition at 25 µM (mushroom tyrosinase [2]; 25 μM compound): 38.2%; inhibition at 5 µM (mushroom tyrosinase [5]; 5 μM compound, 1 mM L-Tyr final): 32.1%; inhibition at 10 µM (mushroom tyrosinase [5]; 10 μM compound): 34.7%; inhibition at 20 µM (mushroom tyrosinase [5]; 20 μM compound): 34.8%; inhibition at 25 µM (mushroom tyrosinase [5]; 25 μM compound): 37%; fold higher level of melanin inhibition vs PC ([3]; 20 µM): 1.5 fold; fold higher level of melanin inhibition vs PC ([3]; 25 µM): 2 fold
